Laboratory results taken from PubChem BioAssay (NCI).
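A five-concentration, 48-hour dose response in 96-well plates underlies each endpoint, interpolated linearly between surrounding concentrations. GI50: concentration for 50% inhibition of growth. TGI: total growth inhibition.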 Where a SMILES comes first, the peptide text is derived from it.

How the values were obtained:
Assay in all cases: NCI anticancer screen, dose series, 48 h
[1] = system: A498 renal
[2] = system: CAKI-1 renal
[3] = system: CCRF-CEM leukemia
[4] = system: DU-145 prostate
[5] = system: HCT-116 colon
[6] = system: NCI-H522 lung
[7] = system: OVCAR-3 ovarian
[8] = system: OVCAR-4 ovarian
[9] = system: SR leukemia
[10] = system: U251 CNS

SMILES	GI50 [1]	TGI [1]	GI50 [2]	TGI [2]	GI50 [3]	TGI [3]	GI50 [4]	TGI [4]	GI50 [5]	TGI [5]	GI50 [6]	TGI [6]	GI50 [7]	TGI [7]	GI50 [8]	TGI [8]	GI50 [9]	TGI [9]	GI50 [10]	TGI [10]
C#CCN=C(N/N=C/c1ccc([N+](=O)[O-])o1)NS(=O)(=O)c1cc(C)c(Cl)cc1SCC(N)=O	17.1 µM	32.7 µM	25.7 µM	45.1 µM	22.2 µM	57.4 µM	11.6 µM	24.5 µM	8.03 µM	20.3 µM	10 µM	23.3 µM	24.9 µM	41.1 µM	16.5 µM	33.3 µM	17 µM	50.1 µM	22.6 µM	84.9 µM
CC(C)CC(NC(=O)C(CC(C)C)NC(=O)C(Cc1cnc[nH]1)NC(=O)C(C)NC(=O)C(NC(=O)C(C)NC(=O)C(Cc1c[nH]c2ccccc12)NC(=O)C(CCC(=O)O)NC(=O)C(N)Cc1ccccc1)C(C)C)C(N)=O (stereo not drawn) (H-FEWAVAHLL-NH2; configuration not given here)	> 100 µM	> 100 µM	> 100 µM	> 100 µM	> 100 µM	> 100 µM	–	> 12.5 µM	> 100 µM	> 100 µM	–	> 12.5 µM	> 100 µM	> 100 µM	> 100 µM	> 100 µM	> 100 µM	> 100 µM	> 100 µM	> 100 µM
COc1cc(C#N)cc(OC)c1OCCOCCOc1c(OC)cc(C#N)cc1OC	35.4 µM	> 100 µM	> 100 µM	> 100 µM	38.8 µM	> 100 µM	> 100 µM	> 100 µM	> 100 µM	> 100 µM	31.2 µM	> 100 µM	> 100 µM	> 100 µM	73.5 µM	> 100 µM	4.33 µM	> 100 µM	> 100 µM	> 100 µM
COc1cc(/C=C/C(=O)c2ccc(Nc3ncnc4ccccc34)cc2)cc(OC)c1	5.86 µM	> 100 µM	19.3 µM	> 100 µM	4.04 µM	22.8 µM	6.71 µM	22.2 µM	0.346 µM	1.17 µM	6.69 µM	30.1 µM	4 µM	13.5 µM	4.28 µM	25.2 µM	0.556 µM	3.17 µM	2.24 µM	6.75 µM
NC1=C(Cl)C(=O)c2ccc(S(N)(=O)=O)cc2C1=O	0.507 µM	1.3 µM	0.82 µM	2.28 µM	0.374 µM	2.77 µM	0.132 µM	0.273 µM	0.224 µM	0.602 µM	0.189 µM	0.403 µM	0.198 µM	0.454 µM	0.324 µM	1.01 µM	0.262 µM	0.606 µM	0.184 µM	0.871 µM
CCOC(=O)/C(=C/c1ccc([N+](=O)[O-])cc1)C(=O)c1ccccc1	2.33 µM	5.37 µM	2.56 µM	7.13 µM	3.03 µM	9.11 µM	2.08 µM	4.27 µM	2.33 µM	5.3 µM	1.7 µM	3.51 µM	2.56 µM	5.96 µM	3.44 µM	12.9 µM	2.85 µM	> 100 µM	2.13 µM	4.48 µM
Cc1cc(C)c(O)c(Cc2cccc(Cc3cc(C)cc(C)c3O)c2O)c1	–	> 100 µM	–	> 100 µM	–	> 100 µM	–	> 100 µM	–	> 100 µM	–	> 100 µM	–	> 100 µM	–	> 100 µM	–	> 100 µM	–	> 100 µM
